# Assay results taken from patent US10143697B2, “Pharmaceutic composition comprising of HDAC inhibitor and a steroid and the use thereof” (VALCURIA AB, priority 2011, dated 2018).
# What was measured:
# WSU-NHL cells [1] = experiment: pretreatment with Trichostatin A or Belinostat, Prednisolone and CHOP, viability by trypan blue exclusion; details: for sensitization to CHOP-treatment: pretreatment with the HDAC inhibitor alone before CHOP
# Description: Viability was assessed by trypan blue exclusion at indicated time points (n=3). Significant differences were evaluated using Student's unpaired t-test. All tests were two-sided. Effects were considered statistically significant at *P<0.05, **P<0.01, ***P<0.001.
# WSU-NHL cells [2] = experiment: pretreatment with VPA and prednisolone before CHOP, viability by trypan blue exclusion; format: cell-based; details: prednisolone (20 μg/ml) added to VPA pretreatment before CHOP, compared to pretreatment with VPA alone
# Excerpt: Pretreatment with VPA before CHOP could theoretically increase the response to CHOP therapy through induction of DNA damage. However, VPA treatment could result in symptoms such as somnolence in a patient. These symptoms could be counteracted by simultaneous treatment with prednisolone. […] All tests were two-sided.
# SU-DHL-8 cells = experiment: Rituximab antibody-dependent cellular cytotoxicity (ADCC) with NK cells, dead target cells PKH26/7-AAD double positive; format: cell-based
# Description: (§1) To estimate the impact of VPA on the antibody-dependent-cellular cytotoxicity (ADCC) induced by the CD20 antibody Rituximab. […]
# (§2) NK cells were added as an effector to target cell ratio of 10:1, thereafter the cells were incubated for an additional 20 hours. Dead target cells were identified as double positive for PKH26 and 7-AAD and used as readout of the assay.
# WSU-NHL cells [3] = experiment: as above; format: cell-based
# Description: as §1, §2
# [4] = Rituximab 0.1 μg/ml, +NK Cells + 1.5 mM VPA
# [5] = Rituximab 0.1 μg/ml, +NK Cells + 1.5 mM VPA + CHOP
# [6] = Rituximab 0.1 μg/ml, +NK cells + CHOP
# [7] = Rituximab 1 μg/ml, +NK Cells + 1.5 mM VPA
# [8] = Rituximab 1 μg/ml, +NK Cells + 1.5 mM VPA + CHOP
# [9] = Rituximab 1 μg/ml, +NK cells + CHOP
# [10] = Rituximab 10 μg/ml, +NK Cells + 1.5 mM VPA
# [11] = Rituximab 10 μg/ml, +NK Cells + 1.5 mM VPA + CHOP
# [12] = Rituximab 10 μg/ml, +NK cells + CHOP
compound,measurement,setting,value
O=C(/C=C/c1cccc(S(=O)(=O)Nc2ccccc2)c1)NO [Belinostat],sensitization to CHOP-treatment,WSU-NHL cells [1],sensitized DLBCL cell lines to CHOP-induced cell death
C[C@]12C=CC(=O)C=C1CC[C@@H]1[C@@H]2[C@@H](O)C[C@@]2(C)[C@H]1CC[C@]2(O)C(=O)CO [Prednisolone],CHOP-induced cell death,WSU-NHL cells [2],further increases significantly CHOP-induced cell death
same,CHOP-induced cell death,WSU-NHL cells [1]; prednisolone (20 μg/ml) added to HDAC inhibitor pretreatment before CHOP,significantly increases CHOP-induced cell death
"CC(/C=C/C(=O)NO)=C\[C@@H](C)C(=O)c1ccc(N(C)C)cc1 [TSA, Trichostatin A]",sensitization to CHOP-treatment,WSU-NHL cells [1],sensitizes lymphoma cell lines to CHOP-treatment
Rituximab: the CD20 antibody Rituximab,"percentage of dead cells, Mean",SU-DHL-8 cells; [4],43%
same,"percentage of dead cells, Mean",SU-DHL-8 cells; [5],50%
same,"percentage of dead cells, Mean","SU-DHL-8 cells; Rituximab 0.1 μg/ml, +NK cells",38%
same,"percentage of dead cells, Mean",SU-DHL-8 cells; [6],38%
same,"percentage of dead cells, Mean",SU-DHL-8 cells; [7],49%
same,"percentage of dead cells, Mean",SU-DHL-8 cells; [8],63%
same,"percentage of dead cells, Mean","SU-DHL-8 cells; Rituximab 1 μg/ml, +NK cells",50%
same,"percentage of dead cells, Mean",SU-DHL-8 cells; [9],49%
same,"percentage of dead cells, Mean",SU-DHL-8 cells; [10],58%
same,"percentage of dead cells, Mean",SU-DHL-8 cells; [11],66%
same,"percentage of dead cells, Mean","SU-DHL-8 cells; Rituximab 10 μg/ml, +NK cells",60%
same,"percentage of dead cells, Mean",SU-DHL-8 cells; [12],59%
same,"percentage of dead cells, Mean",WSU-NHL cells [3]; [4],40%
same,"percentage of dead cells, Mean",WSU-NHL cells [3]; [5],60%
same,"percentage of dead cells, Mean","WSU-NHL cells [3]; Rituximab 0.1 μg/ml, +NK cells",35%
same,"percentage of dead cells, Mean",WSU-NHL cells [3]; [6],45%
same,"percentage of dead cells, Mean",WSU-NHL cells [3]; [7],50%
same,"percentage of dead cells, Mean",WSU-NHL cells [3]; [8],60%
same,"percentage of dead cells, Mean","WSU-NHL cells [3]; Rituximab 1 μg/ml, +NK cells",45%
same,"percentage of dead cells, Mean",WSU-NHL cells [3]; [9],54%
same,"percentage of dead cells, Mean",WSU-NHL cells [3]; [10],56%
same,"percentage of dead cells, Mean",WSU-NHL cells [3]; [11],66%
same,"percentage of dead cells, Mean","WSU-NHL cells [3]; Rituximab 10 μg/ml, +NK cells",54%
same,"percentage of dead cells, Mean",WSU-NHL cells [3]; [12],61%
